Test results reported in patent publication US5382568A, “Decapeptide having dopamine stimulating activity” (Arizona Board of Regents, priority 1993, dated 1995).
Residues, ends and D or L forms follow the SMILES beside them. No end group written: not given here.

What was measured:
serum PRL = assay: Acute effect of intravenous injection on serum PRL (radioimmunoassay); format: in vivo; conditions: rats, intravenous 5.0 micrograms
Protocol: (§1) For intravenous peptide injections anesthetized rats were fitted surgically with indwelling intra-arterial cannulae 24 hours before the tests. The next day samples of arterial blood were withdrawn from the unanesthetized rats immediately before and after the injection of graded doses of the pineal antigonadotropin. Prolactin and LH were measured in the blood samples by standard double antibody radioimmunoassay with kits provided by the National Hormone and Pituitary Program. The acute effects of 5.0 micrograms of the antigonadotropin are illustrated in the table below:
(§2) Values for LH are expressed as the National Institutes of Health reference standard LH-RP-2. Means±S.E.M. are indicated (n=5)

serum LH = assay: Acute effect of intravenous injection on serum LH (radioimmunoassay); format: in vivo; conditions: rats, intravenous 5.0 micrograms, as LH-RP-2 standard
Protocol: as §1, §2

[1] = system: rat hypothalamic median eminence strips; assay: Dopamine release from hypothalamic median eminence strips in vitro; conditions: for Release of dopamine from rat hypothalamus in vitro (in words): median eminence strips
Protocol: Rat hypothalamic median eminence strips were rapidly dissected and placed in culture plates containing 100 μl of a Kreb's solution saturated with O2 in accord with the procedure described in Racke, K. and E. Muscholl, J. of Neurochemistry 46:745, 1986. The median eminence strips were maintained at 37° C. under 95% O2 /5%CO2 in a Dubnoff shaking incubator. The media were replaced after a ten minute pre-incubation period. 50 μl samples were taken at 30, 60 and 90 min of incubation for catecholamine determination, with replacement of the removed media. 20 μl of 0.1M perchloric acid were added to each sample before storage at -20°. Media contents of dopamine, norepinephrine and various indoleamine and catecholamine metabolites were determined by HPLC coupled with electrochemical detection in accord with the procedure described in Gregory, V. M., B. Larsen and B. Benson, J. of Chromatography 345:140-144,1985.

[2] = system: male and female rats and mice; assay: Antigonadotropic effects after chronic daily subcutaneous injection; format: in vivo; conditions: two to four weeks
Protocol: The neurotropic pineal antigonadotropin of the present invention was assayed in vivo, as is described below. Natural and synthetic analogs were injected into male and female rats and mice in graded doses. Antigonadotropic effects were assessed after a period of chronic daily subcutaneous injection in a variety of solvents/carriers, e.g. physiological saline or corn oil. […] Additionally, blood levels of the gonadal steroids (testosterone in males and estrogens in females) were reduced.

[3] = system: pituitary secretion of LH and PRL; assay: Intravenous or intracerebroventricular injections: pituitary secretion of LH and PRL; format: in vivo
[4] = system: anterior pituitary dopamine content; assay: Acute effect of a single subcutaneous injection on anterior pituitary dopamine content; format: in vivo; conditions: mice; for Pituitary dopamine content: single subcutaneous injection of 25 nanograms

Compound	Serum PRL (serum PRL; postinjection time 0')	Serum PRL (serum PRL; postinjection time 15')	Serum PRL (serum PRL; postinjection time 30')	Serum PRL (serum PRL; postinjection time 45')	Serum PRL (serum PRL; postinjection time 60')	Serum LH (serum LH; postinjection time 0') [ng/mL]	Serum LH (serum LH; postinjection time 15') [ng/mL]	Serum LH (serum LH; postinjection time 30') [ng/mL]	Serum LH (serum LH; postinjection time 45') [ng/mL]	Serum LH (serum LH; postinjection time 60') [ng/mL]	other results
C[C@@H](O)[C@H](NC(=O)[C@H](CCCCN)NC(=O)[C@@H](NC(=O)[C@@H](NC(=O)[C@@H]1CCCN1C(=O)[C@H](Cc1ccccc1)NC(=O)[C@@H](N)CO)[C@@H](C)O)[C@@H](C)O)C(=O)N[C@@H](Cc1ccc(O)cc1)C(=O)N[C@@H](Cc1ccccc1)C(=O)N1CCC[C@H]1C(=O)O [PAG (1), NH2 -Ser-Phe-Pro-Thr-Thr-Lys-Thr-Tyr-Phe-Pro-COOH] (H-SFPTTKTYFP-OH)	100 ± 11 % of Initial Control Value	55 ± 6 % of Initial Control Value	38 ± 6 % of Initial Control Value	31 ± 4 % of Initial Control Value	22 ± 5 % of Initial Control Value	0.25	0.21	0.15	0.10	0.14	
C[C@@H](O)[C@H](NC(=O)[C@H](CCCCN)NC(=O)[C@@H](NC(=O)[C@@H](NC(=O)[C@@H]1CCCN1C(=O)[C@H](Cc1ccccc1)NC(=O)[C@@H](N)CO)[C@@H](C)O)[C@@H](C)O)C(=O)N[C@@H](Cc1ccc(O)cc1)C(=O)N[C@@H](Cc1ccccc1)C(=O)N1CCC[C@H]1C(=O)O [PAG (2), NH2 -Ser-Phe-Pro-Thr-Thr-Lys-Thr-Tyr-Phe-Pro-COOH] (H-SFPTTKTYFP-OH)	100 ± 8 % of Initial Control Value	44 ± 6 % of Initial Control Value	30 ± 3 % of Initial Control Value	25 ± 3 % of Initial Control Value	32 ± 6 % of Initial Control Value	0.26	0.20	0.15	0.12	0.11	Release of dopamine from rat hypothalamus in vitro (in words) ([1]; listed as synthetic decapeptide): effectively stimulates the release of dopamine into the incubation medium
SFPTTKTYFP [PAG, NH2 -Ser-Phe-Pro-Thr-Thr-Lys-Thr-Tyr-Phe-Pro-COOH]											Pituitary and blood levels of gonadotropins and prolactin [2]: reductions of pituitary and blood levels of gonadotropins and prolactin; Pituitary, gonadal and accessory reproductive organ weights [2]: significant reductions in pituitary, gonadal and accessory reproductive organ weights; Dopamine released into the incubation medium (accumulative) ([1]; 10^-5 M, incubation time 30'): 35.2 ± 7.6 pg/µL; Dopamine released into the incubation medium (accumulative) ([1]; 10^-5 M, incubation time 60'): 100.2 ± 13 pg/µL; Dopamine released into the incubation medium (accumulative) ([1]; 10^-5 M, incubation time 90'): 182.9 ± 13.7 pg/µL; Dopamine released into the incubation medium (accumulative) ([1]; 10^-7 M, incubation time 30'): 27.2 ± 2.1 pg/µL; Dopamine released into the incubation medium (accumulative) ([1]; 10^-7 M, incubation time 60'): 61.5 ± 5.3 pg/µL; Dopamine released into the incubation medium (accumulative) ([1]; 10^-7 M, incubation time 90'): 109.3 ± 10.8 pg/µL; Release of dopamine from rat hypothalamus in vitro (in words) ([1]; listed as pineal antigonadotropic decapeptide): stimulates the release of dopamine; Release of pituitary LH (pulsatile) ([3]; intracerebroventricular infusions): inhibited release of pituitary LH, reducing both the amplitude and frequency of pulsatile LH release into the blood; Pituitary secretion of LH and PRL ([3]; intravenous or intracerebroventricular injections): demonstrable inhibitory effects on pituitary secretion of LH and PRL; Anterior pituitary dopamine content (in words) ([4]; single injection of 25 nanograms): significant increase in anterior pituitary dopamine content; Pituitary dopamine content ([4]; postinjection time 0'): 0.539 ± 0.046 nanograms per mg of pituitary; Pituitary dopamine content ([4]; postinjection time 15'): 0.795 ± 0.064 nanograms per mg of pituitary; Pituitary dopamine content ([4]; postinjection time 30'): 1.801 ± 0.126 nanograms per mg of pituitary
